In publication PMC3407951 (EMBO Molecular Medicine, 2012):

Tests used:
[1] = tested on: ADAM10; assay: 0.4 µg; settings: human, 37°C, up to 24 h
[2] = molecular target: human NEP (Homo sapiens, UniProt P08473); settings: literature statement; ref Betts et al, [2008]; cited from earlier work
Chain of human NEP (P08473 whole entry): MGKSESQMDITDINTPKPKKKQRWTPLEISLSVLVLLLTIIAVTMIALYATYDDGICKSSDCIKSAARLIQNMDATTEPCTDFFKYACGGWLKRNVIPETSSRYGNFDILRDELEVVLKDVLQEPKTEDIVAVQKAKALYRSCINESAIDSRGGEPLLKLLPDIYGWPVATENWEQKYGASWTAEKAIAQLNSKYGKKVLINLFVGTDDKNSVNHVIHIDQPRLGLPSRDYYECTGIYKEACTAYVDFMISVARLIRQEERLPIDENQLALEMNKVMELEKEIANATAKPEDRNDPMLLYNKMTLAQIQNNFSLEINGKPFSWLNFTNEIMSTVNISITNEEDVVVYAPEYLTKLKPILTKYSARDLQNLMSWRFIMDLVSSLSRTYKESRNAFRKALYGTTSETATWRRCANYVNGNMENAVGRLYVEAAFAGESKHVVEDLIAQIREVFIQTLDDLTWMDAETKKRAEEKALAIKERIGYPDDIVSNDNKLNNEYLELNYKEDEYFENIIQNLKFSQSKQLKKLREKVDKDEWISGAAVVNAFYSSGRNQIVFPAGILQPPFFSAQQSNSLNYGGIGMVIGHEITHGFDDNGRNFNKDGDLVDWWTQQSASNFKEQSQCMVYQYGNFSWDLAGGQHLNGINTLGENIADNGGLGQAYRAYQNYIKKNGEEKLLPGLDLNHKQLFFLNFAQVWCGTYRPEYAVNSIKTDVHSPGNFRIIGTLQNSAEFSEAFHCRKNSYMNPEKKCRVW

Row | fragment found [1] | Substance | NEP-mediated degradation [2]
1 | Aβ11–16 K16N, minor, 5 h | EVHHQNLVFFAEDVGSNK | –
2 | – | Aβ40 A21G: Aβ40 peptide with the Flemish mutation A21G (literature) | attenuated
